45 substances from patent US11591604B2, “Gene expression in Bacteroides” (Massachusetts Institute of Technology, priority 2015, dated 2023) can be followed below.

The subject of the series is NanoLuc. The series is described as follows: NanoLuc luciferase reporter expression from constitutive promoters and RBSs integrated with pNBU2. The series is classed as cell-based, B. thetaiotaomicron. Conditions: for Average Luminescence (RLU/CFU): RBS combined with promoter PBT1311, NanoLuc reporter, three biological replicates; for Expression Level (RLU/CFU): set of 8 RBSs, under control of PBT1311, NanoLuc reporter. In general terms: A reporter such as luciferase makes a cellular process visible.

As for “B29: RBS, SEQ ID NO: 80 (DNA TCCCGCATTTTAAAATAAAATAAATTATATAGTTAATTAAACGAAT; chemistry not fully specified)”, the “Average Luminescence (RLU/CFU)” value is listed as 0.009478 RLU/CFU. For “C20: RBS, SEQ ID NO: 51 (DNA TCCCGCATTTTAAAATAAAATAAATTATTGTTTTAGTTAAACGAAT; chemistry not fully specified)”, the “Average Luminescence (RLU/CFU)” value was determined as 0.01758 RLU/CFU.

On to “A23: RBS, SEQ ID NO: 79 (DNA TCCCGCATTTTAAAATAAAATAAATTATTAGTTTACTTAAACGAAT; chemistry not fully specified)”, for which the “Average Luminescence (RLU/CFU)” value is 0.009507 RLU/CFU. Still for that read-out and setting: then “B21: RBS, SEQ ID NO: 53 (DNA TCCCGCATTTTAAAATAAAATAAATGATATATTTAATTAAACGAAT; chemistry not fully specified)”, with 0.01613 RLU/CFU; and “C45: RBS, SEQ ID NO: 124 (DNA TCCCGCATTTTAAAATAAAATAAATTATTCATTTAGTTAAACGAAT; chemistry not fully specified)”, with 0.0024 RLU/CFU; and “C14: RBS, SEQ ID NO: 40 (DNA TCCCGCATTTTAAAATAAAATAAATTATTTCTTTACTTAAACGAAT; chemistry not fully specified)”, with 0.02123 RLU/CFU. Take “C52: RBS, SEQ ID NO: 138 (DNA TCCCGCATTTTAAAATAAAATAAATTATTGGTTTACTTAAACGAAT; chemistry not fully specified)”: the “Average Luminescence (RLU/CFU)” value stood at 0.000163 RLU/CFU and the “Expression Level (RLU/CFU)” value is 1.63E-04 RLU/CFU. Take “C18: RBS, SEQ ID NO: 47 (DNA TCCCGCATTTTAAAATAAAATAAATTATTGTTTTACTTAAACGAAT; chemistry not fully specified)”: the “Average Luminescence (RLU/CFU)” value came out at 0.01851 RLU/CFU. In the case of “B8: RBS, SEQ ID NO: 9 (DNA TCCCGCATTTTAAAATAAAATAAATTATTTAATTAATTAAACGAAT; chemistry not fully specified)”, the “Average Luminescence (RLU/CFU)” value came to 0.04684 RLU/CFU. For “C39: RBS, SEQ ID NO: 109 (DNA TCCCGCATTTTAAAATAAAATAAATTATTCCTTTATTTAAACGAAT; chemistry not fully specified)”, the “Average Luminescence (RLU/CFU)” value is recorded as 0.004534 RLU/CFU. Regarding “A44: RBS, SEQ ID NO: 135 (DNA TCCCGCATTTTAAAATAAAATAAATTATTCGTTTATTTAAACGAAT; chemistry not fully specified)”, the “Average Luminescence (RLU/CFU)” value stood at 0.0006478 RLU/CFU. Turning to “C6: RBS, SEQ ID NO: 19 (DNA TCCCGCATTTTAAAATAAAATAAATTATTAATTTAGTTAAACGAAT; chemistry not fully specified)”, the “Average Luminescence (RLU/CFU)” value came to 0.03263 RLU/CFU. On to “A7: RBS, SEQ ID NO: 34 (DNA TCCCGCATTTTAAAATAAAATAAATTATTAGTTTAATTAAACGAAT; chemistry not fully specified)”, for which the “Average Luminescence (RLU/CFU)” value came to 0.02467 RLU/CFU. Turning to “C32: RBS, SEQ ID NO: 91 (DNA TCCCGCATTTTAAAATAAAATAAATTATTGCTTTATTTAAACGAAT; chemistry not fully specified)”, the “Average Luminescence (RLU/CFU)” value is listed as 0.007717 RLU/CFU. As to “B27: RBS, SEQ ID NO: 74 (DNA TCCCGCATTTTAAAATAAAATAAATGATATAGTTAATTAAACGAAT; chemistry not fully specified)”, the “Average Luminescence (RLU/CFU)” value is given as 0.009815 RLU/CFU. Take “A12: RBS, SEQ ID NO: 56 (DNA TCCCGCATTTTAAAATAAAATAAATTATTGTTTTAATTAAACGAAT; chemistry not fully specified)”: the “Average Luminescence (RLU/CFU)” value stood at 0.01552 RLU/CFU. Take “C17: RBS, SEQ ID NO: 45 (DNA TCCCGCATTTTAAAATAAAATAAATTATTAGTTTATTTAAACGAAT; chemistry not fully specified)”: the “Average Luminescence (RLU/CFU)” value turned out to be 0.01871 RLU/CFU. Regarding “C53: RBS, SEQ ID NO: 140 (DNA TCCCGCATTTTAAAATAAAATAAATTATTCGTTTAATTAAACGAAT; chemistry not fully specified)”, the “Average Luminescence (RLU/CFU)” value was determined as 7.299E-05 RLU/CFU and the “Expression Level (RLU/CFU)” value was 7.30E-05 RLU/CFU. For the substance “B16: RBS, SEQ ID NO: 28 (DNA TCCCGCATTTTAAAATAAAATAAATTATATACTTAATTAAACGAAT; chemistry not fully specified)”, the “Average Luminescence (RLU/CFU)” value is listed as 0.02683 RLU/CFU. The same measure, in the same setting: the result for “A36: RBS, SEQ ID NO: 111 (DNA TCCCGCATTTTAAAATAAAATAAATTATTTGTTTAGTTAAACGAAT; chemistry not fully specified)” reads 0.004309 RLU/CFU; that for “B28: RBS, SEQ ID NO: 77 (DNA TCCCGCATTTTAAAATAAAATAAATTATGTAGTTAATTAAACGAAT; chemistry not fully specified)”, 0.009593 RLU/CFU.

Turning to “C34: RBS, SEQ ID NO: 96 (DNA TCCCGCATTTTAAAATAAAATAAATTATTCTTTTACTTAAACGAAT; chemistry not fully specified)”, the “Average Luminescence (RLU/CFU)” value was 0.006727 RLU/CFU. Still for that read-out and setting: then “A19: RBS, SEQ ID NO: 70 (DNA TCCCGCATTTTAAAATAAAATAAATTATTTTTTTATTTAAACGAAT; chemistry not fully specified)”, with 0.01206 RLU/CFU; and “C16: RBS, SEQ ID NO: 43 (DNA TCCCGCATTTTAAAATAAAATAAATTATTAGTTTAATTAAACGAAT; chemistry not fully specified)”, with 0.0203 RLU/CFU; and “C50: RBS, SEQ ID NO: 132 (DNA TCCCGCATTTTAAAATAAAATAAATTATTTGTTTATTTAAACGAAT; chemistry not fully specified)”, with 0.001261 RLU/CFU. The same measure, in the same setting: then “C31: RBS, SEQ ID NO: 90 (DNA TCCCGCATTTTAAAATAAAATAAATTATTTATTTACTTAAACGAAT; chemistry not fully specified)”, with 0.007861 RLU/CFU. For the substance “B4: RBS, SEQ ID NO: 4 (DNA TCCCGCATTTTAAAATAAAATAAATAATTTAATTAATTAAACGAAT; chemistry not fully specified)”, the “Average Luminescence (RLU/CFU)” value was 0.05153 RLU/CFU. For the substance “B41: RBS, SEQ ID NO: 139 (DNA TCCCGCATTTTAAAATAAAATAAATCATATAGTTAATTAAACGAAT; chemistry not fully specified)”, the “Average Luminescence (RLU/CFU)” value was 0.0001307 RLU/CFU. Turning to “C5: RBS, SEQ ID NO: 17 (DNA TCCCGCATTTTAAAATAAAATAAATTATTCATTTAATTAAACGAAT; chemistry not fully specified)”, the “Average Luminescence (RLU/CFU)” value was determined as 0.03327 RLU/CFU. Regarding “C33: RBS, SEQ ID NO: 93 (DNA TCCCGCATTTTAAAATAAAATAAATTATTAGTTTACTTAAACGAAT; chemistry not fully specified)”, the “Average Luminescence (RLU/CFU)” value is on record as 0.006912 RLU/CFU and the “Expression Level (RLU/CFU)” value came to 6.91E-03 RLU/CFU. Take “B3: RBS, SEQ ID NO: 3 (DNA TCCCGCATTTTAAAATAAAATAAATAATATAATTAATTAAACGAAT; chemistry not fully specified)”: the “Average Luminescence (RLU/CFU)” value was found to be 0.06083 RLU/CFU. With “B20: RBS, SEQ ID NO: 52 (DNA TCCCGCATTTTAAAATAAAATAAATGATCTAATTAATTAAACGAAT; chemistry not fully specified)”, the “Average Luminescence (RLU/CFU)” value is listed as 0.01676 RLU/CFU. Still for that read-out and setting: then “A33: RBS, SEQ ID NO: 106 (DNA TCCCGCATTTTAAAATAAAATAAATTATTTCTTTAGTTAAACGAAT; chemistry not fully specified)”, with 0.005258 RLU/CFU; and “A39: RBS, SEQ ID NO: 116 (DNA TCCCGCATTTTAAAATAAAATAAATTATTGTTTTATTTAAACGAAT; chemistry not fully specified)”, with 0.003302 RLU/CFU; and “A35: RBS, SEQ ID NO: 110 (DNA TCCCGCATTTTAAAATAAAATAAATTATTCATTTAGTTAAACGAAT; chemistry not fully specified)”, with 0.004513 RLU/CFU. “B38: RBS, SEQ ID NO: 127 (DNA TCCCGCATTTTAAAATAAAATAAATCATTTAGTTAATTAAACGAAT; chemistry not fully specified)”: the “Average Luminescence (RLU/CFU)” value came out at 0.001793 RLU/CFU. On to “C13: RBS, SEQ ID NO: 38 (DNA TCCCGCATTTTAAAATAAAATAAATTATTAATTTAATTAAACGAAT; chemistry not fully specified)”, for which the “Average Luminescence (RLU/CFU)” value amounted to 0.02149 RLU/CFU. Take “A37: RBS, SEQ ID NO: 113 (DNA TCCCGCATTTTAAAATAAAATAAATTATTTGTTTAATTAAACGAAT; chemistry not fully specified)”: the “Average Luminescence (RLU/CFU)” value stood at 0.003964 RLU/CFU.

In the case of “C55: RBS, SEQ ID NO: 142 (DNA TCCCGCATTTTAAAATAAAATAAATTATTCGTTTACTTAAACGAAT; chemistry not fully specified)”, the “Average Luminescence (RLU/CFU)” value amounted to 2.628E-05 RLU/CFU. For “B17: RBS, SEQ ID NO: 30 (DNA TCCCGCATTTTAAAATAAAATAAATAATTTAGTTAATTAAACGAAT; chemistry not fully specified)”, the “Average Luminescence (RLU/CFU)” value is given as 0.0259 RLU/CFU.

As for “A38: RBS, SEQ ID NO: 114 (DNA TCCCGCATTTTAAAATAAAATAAATTATTCCTTTAGTTAAACGAAT; chemistry not fully specified)”, the “Average Luminescence (RLU/CFU)” value worked out at 0.003824 RLU/CFU. As to “A9: RBS, SEQ ID NO: 46 (DNA TCCCGCATTTTAAAATAAAATAAATTATTGTTTTACTTAAACGAAT; chemistry not fully specified)”, the “Average Luminescence (RLU/CFU)” value amounted to 0.0186 RLU/CFU.

In the case of “A41: RBS, SEQ ID NO: 123 (DNA TCCCGCATTTTAAAATAAAATAAATTATTATTTTATTTAAACGAAT; chemistry not fully specified)”, the “Average Luminescence (RLU/CFU)” value was 0.002417 RLU/CFU. For “B13: RBS, SEQ ID NO: 25 (DNA TCCCGCATTTTAAAATAAAATAAATGATTTAATTAATTAAACGAAT; chemistry not fully specified)”, the “Average Luminescence (RLU/CFU)” value worked out at 0.02746 RLU/CFU. Still for that read-out and setting: then “C27: RBS, SEQ ID NO: 76 (DNA TCCCGCATTTTAAAATAAAATAAATTATTTTTTTAGTTAAACGAAT; chemistry not fully specified)”, with 0.009752 RLU/CFU.
